Measurements published in ChEMBL document CHEMBL4402589, “Discovery of a Potent and Selective NF-κB-Inducing Kinase (NIK) Inhibitor That Has Anti-inflammatory Effects in Vitro and in Vivo” (J Med Chem, 2020).

Legend:
[1] = target: Mitogen-activated protein kinase kinase kinase 14 (Homo sapiens, UniProt Q99558); assay: Inhibition of recombinant human N-terminal GST-tagged NIK (318 to 947 residues) expressed in baculovirus infected Sf9 cells using ultrapure ATP as substrate measured after 1 hr by ADP-glo assay
[2] = Stability of the compound in pH 1 aqueous solution; format: physicochemical; details: buffer

Mitogen-activated protein kinase kinase kinase 14, sequence (Q99558 whole entry, the tested form may be a part): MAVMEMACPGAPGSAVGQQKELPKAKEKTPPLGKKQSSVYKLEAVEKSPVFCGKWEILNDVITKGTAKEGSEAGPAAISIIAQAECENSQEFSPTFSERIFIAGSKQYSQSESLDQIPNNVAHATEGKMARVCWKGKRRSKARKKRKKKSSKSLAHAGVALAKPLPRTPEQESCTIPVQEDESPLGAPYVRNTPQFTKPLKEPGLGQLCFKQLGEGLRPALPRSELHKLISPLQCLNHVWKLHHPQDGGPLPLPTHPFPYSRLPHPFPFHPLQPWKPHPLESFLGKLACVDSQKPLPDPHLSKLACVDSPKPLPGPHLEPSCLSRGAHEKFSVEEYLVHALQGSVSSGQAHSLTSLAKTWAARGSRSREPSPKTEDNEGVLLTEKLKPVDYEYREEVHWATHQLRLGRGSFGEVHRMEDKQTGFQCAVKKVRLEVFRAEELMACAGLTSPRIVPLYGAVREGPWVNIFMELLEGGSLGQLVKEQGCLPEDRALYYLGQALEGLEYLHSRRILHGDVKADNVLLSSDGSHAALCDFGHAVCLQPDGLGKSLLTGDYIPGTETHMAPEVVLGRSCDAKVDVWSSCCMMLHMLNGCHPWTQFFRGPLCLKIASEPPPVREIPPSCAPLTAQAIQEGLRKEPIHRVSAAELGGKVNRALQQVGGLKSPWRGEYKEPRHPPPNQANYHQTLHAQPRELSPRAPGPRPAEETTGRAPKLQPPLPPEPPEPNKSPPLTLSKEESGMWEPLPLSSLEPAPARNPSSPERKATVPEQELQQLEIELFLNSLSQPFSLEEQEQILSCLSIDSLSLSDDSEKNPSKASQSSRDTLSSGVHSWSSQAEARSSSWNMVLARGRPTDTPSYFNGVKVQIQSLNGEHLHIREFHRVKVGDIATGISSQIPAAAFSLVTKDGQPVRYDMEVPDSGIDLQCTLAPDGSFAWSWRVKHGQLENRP

IC50 [1] [nM] | Stability [2] | Structure (SMILES)
> 10000 | – | CC(O)(C#Cc1cccc(-c2c[nH]c3cnc(N)nc23)c1)C(=O)N1CCCC1 (stereo not given)
216 | – | COc1ccc(C#CC(C)(O)c2nccs2)cc1-n1ccc2cnc(N)nc21 (stereo not given)
87.3 | – | CC(O)(C#Cc1cc(-n2ccc3cnc(N)nc32)c(F)cn1)c1nccs1 (stereo not given)
6380 | – | Nc1ncc2[nH]cc(-c3cccc(C#CC(O)c4nccs4)c3)c2n1 (stereo not given)
410 | – | CN1CCC(O)(C#Cc2cccc(-c3c[nH]c4cnc(N)nc34)c2)C1=O (stereo not given)
2230 | – | C[C@](O)(C#Cc1ccc(F)c(-c2c[nH]c3cnc(N)nc23)c1)c1nccs1
2200 | – | Cc1[nH]c2cnc(N)nc2c1-c1cccc(C#CC(C)(O)c2nccs2)c1 (stereo not given)
120 | – | Cc1cc(C(C)(O)C#Cc2cc(-n3ccc4cnc(N)nc43)ccn2)no1 (stereo not given)
335 | – | Cc1ccc(C#CC(C)(O)c2nccs2)cc1-n1ccc2cnc(N)nc21 (stereo not given)
319 | – | CC(O)(C#Cc1cc(F)cc(-c2c[nH]c3cnc(N)nc23)c1)c1nccs1 (stereo not given)
720 | – | CC(C)(O)C#Cc1cccc(-c2c[nH]c3cnc(N)nc23)c1
2060 | – | CC(O)(C#Cc1cc(C#N)cc(-n2ccc3cnc(N)nc32)c1)c1nccs1 (stereo not given)
> 10000 | – | CN(C)C(=O)C(C)(O)C#Cc1cccc(-c2c[nH]c3cnc(N)nc23)c1 (stereo not given)
290 | – | Cc1cc(C(C)(O)C#Cc2cccc(-c3c[nH]c4cnc(N)nc34)c2)no1 (stereo not given)
25.7 | – | CN1CCCC(O)(C#Cc2cc(-n3ccc4cnc(N)nc43)ccn2)C1=O (stereo not given)

Second part, the compound before the results:

Structure (SMILES) | IC50 [1] [nM] | Stability [2]
CC(O)(C#Cc1cc(-n2ccc3cnc(N)nc32)ccn1)C(=O)N1CCCC1 (stereo not given) | 6160 | –
CC(O)(C#Cc1cc(-n2ccc3cnc(N)nc32)c(F)cc1F)c1nccs1 (stereo not given) | 641 | –
Cc1nc(N)nc2c1ccn2-c1ccnc(C#CC2(O)CCN(C)C2=O)c1 (stereo not given) | 85.2 | –
CC(O)(C#Cc1ccc(-n2ccc3cnc(N)nc32)cc1)c1nccs1 (stereo not given) | 3840 | –
Cc1ccc(-n2ccc3cnc(N)nc32)cc1C#CC(C)(O)c1nccs1 (stereo not given) | 11700 | –
CC(O)(C#Cc1ccc(F)c(-c2c[nH]c3cnc(N)nc23)c1)c1nccs1 (stereo not given) | 85.5 | Stable
COc1ccc(-n2ccc3cnc(N)nc32)cc1C#CC(C)(O)c1nccs1 (stereo not given) | 1750 | –
CC(O)(C#Cc1cc(Cl)cc(-c2c[nH]c3cnc(N)nc23)c1)c1nccs1 (stereo not given) | > 10000 | –
CCC(O)(C#Cc1cc(-n2ccc3cnc(N)nc32)ccn1)c1nccs1 (stereo not given) | 2290 | –
CC(O)(C#Cc1cc(-n2ccc3cnc(N)nc32)ccn1)c1nccs1 (stereo not given) | 22.4 | Unstable
CC(O)(C#Cc1cc(-n2ccc3cnc(N)nc32)ccc1C#N)c1nccs1 (stereo not given) | 219 | –
CC(O)(C#Cc1cccc(-c2c[nH]c3cnc(N)nc23)c1)C1CCCCC1 (stereo not given) | 2030 | –
Nc1ncc2ccn(-c3ccnc(C#CC4(O)CCCCCC4)c3)c2n1 | 748 | –
